Reference: ChEMBL document CHEMBL3632515, “Discovery of an L-alanine ester prodrug of the Hsp90 inhibitor, MPC-3100” (Bioorg Med Chem Lett, 2015)
Values after ≈ are worked out from the molar mass of the structure shown. Blank lines part the entries; values can stand above or below the compound they belong to. Active and inactive are the calls of the source. No cut-off for these calls is given here.

Columns and labels:
[1] = Toxicity in po dosed nu+/- mouse; format: organism-based; conditions: in vivo
[2] = Cmax in mouse at 200 mg/kg, po administered with 2% CMC by LC-ESI-MS/MS analysis; format: ADME, organism-based; design: dose 200 mg/kg, route oral; conditions: in vivo
[3] = Kinetic solubility of the compound at pH 6.5; format: physicochemical; conditions: buffer, read-out: Kinetic_solubility
[4] = Apparent permeability of the compound at pH 6.2; format: physicochemical; conditions: not told
[5] = Aqueous solubility of the compound in simulated intestinal fluid at pH 6.8; format: physicochemical
Plasma [6] = test: Drug level in mouse plasma treated with MPC-0767; format: ADME, cell-free
Liver [7] = test: Drug level in mouse liver microsomes treated with MPC-0767; format: ADME
Liver microsome [8] = test: Drug level in human liver microsomes treated with MPC-0767; format: ADME
[9] = Drug level in simulated intestinal fluid treated with MPC-0767 at pH 6.8 in presence of pancreatin; format: physicochemical; conditions: simulated gi fluid
[10] = Tmax in mouse at 200 mg/kg, po administered with 40% captisol by LC-ESI-MS/MS analysis; format: ADME, organism-based; conditions: in vivo
[11] = Cmax in mouse at 200 mg/kg, po administered with 40% captisol by LC-ESI-MS/MS analysis; format: ADME, organism-based; design: dose 200 mg/kg, route oral; conditions: in vivo
[12] = AUC in mouse at 200 mg/kg, po administered with 40% captisol by LC-ESI-MS/MS analysis; format: ADME, organism-based; conditions: in vivo
[13] = Oral bioavailability in mouse at 200 mg/kg administered with 40% captisol by LC-ESI-MS/MS analysis; format: ADME, organism-based; conditions: in vivo
[14] = Tmax in mouse at 200 mg/kg, po administered with 2% CMC by LC-ESI-MS/MS analysis; format: ADME, organism-based; conditions: in vivo
[15] = AUC in mouse at 200 mg/kg, po administered with 2% CMC by LC-ESI-MS/MS analysis; format: ADME, organism-based; conditions: in vivo
[16] = Oral bioavailability in mouse at 200 mg/kg administered with 2% CMC by LC-ESI-MS/MS analysis; format: ADME, organism-based; conditions: in vivo
NCI-N87 [17] = test: Antitumor activity against human NCI-N87 cells xenografted in mouse assessed as tumor growth inhibition at 200 mg/kg, po relative to control; format: functional; conditions: read-out: TGI
Mus musculus [18] = test: Toxicity in nu+/- mouse assessed as mortality at 286 mg/kg, po; format: organism-based; conditions: in vivo
NCI-N87 [19] = test: Antitumor activity against human NCI-N87 cells xenografted in mouse assessed as tumor growth inhibition at 265 mg/kg, po; format: functional, organism-based
[20] = Aqueous solubility of the compound in simulated intestinal fluid at pH 6.5 to 6.8; format: physicochemical
[21] = Half life in mouse plasma; format: ADME, cell-free
[22] = Half life in monkey plasma; format: ADME, cell-free, Macaca mulatta; conditions: rhesus monkey
[23] = Half life in human plasma; format: ADME, cell-free
[24] = Half life in phosphate buffer at pH 7.4; format: physicochemical
[25] = Half life in mouse liver microsomes in absence of NADPH; format: ADME
[26] = Half life in mouse liver microsomes in presence of NADPH; format: ADME
[27] = Half life in human liver microsomes in absence of NADPH; format: ADME
[28] = Half life in human liver microsomes in presence of NADPH; format: ADME
[29] = Half life in simulated gastric fluid at pH 1.2; format: ADME
[30] = Half life in simulated gastric fluid at pH 1.2 in presence of pepsin; format: ADME; conditions: simulated gastric fluid with pepsin
[31] = Half life in simulated intestinal fluid at pH 6.8; format: ADME
[32] = Half life in simulated intestinal fluid at pH 6.8 in presence of pancreatin; format: ADME; conditions: simulated intestinal fluid with pancreatin
Plasma [33] = test: Prodrug conversion in mouse plasma assessed as formation of MPC-3100; format: ADME, cell-free
Liver [34] = test: Prodrug conversion in mouse liver microsomes assessed as formation of MPC-3100; format: ADME
Liver microsome [35] = test: Prodrug conversion in human liver microsomes assessed as formation of MPC-3100; format: ADME
Mus musculus [36] = test: Tmax in mouse assessed as MPC-3100 at 265 mg/kg, po administered with 2% CMC by LC-ESI-MS/MS analysis; format: ADME, organism-based; conditions: in vivo
Mus musculus [37] = test: Cmax in mouse assessed as MPC-3100 at 265 mg/kg, po administered with 2% CMC by LC-ESI-MS/MS analysis; format: ADME, organism-based; design: dose 265 mg/kg, route oral; conditions: in vivo
Mus musculus [38] = test: AUC in mouse assessed as MPC-3100 at 265 mg/kg, po administered with 2% CMC by LC-ESI-MS/MS analysis; format: ADME, organism-based; conditions: in vivo
Mus musculus [39] = test: Oral bioavailability in mouse assessed as MPC-3100 at 265 mg/kg administered with 2% CMC by LC-ESI-MS/MS analysis; format: ADME, organism-based; conditions: in vivo
Mus musculus [40] = test: Toxicity in mouse xenografted with human NCI-N87 cells assessed as body weight loss at 265 mg/kg, po; format: organism-based; conditions: in vivo
Mus musculus [41] = test: Oral bioavailability in mouse assessed as MPC-3100; format: ADME, organism-based; conditions: in vivo
NCI-N87 [42] = test: Antitumor activity against human NCI-N87 cells xenografted in mouse assessed as tumor regression; format: functional

Structure (SMILES): C[C@H](N)C(=O)O[C@@H](C)C(=O)N1CCC(CCn2c(Sc3cc4c(cc3Br)OCO4)nc3c(N)ncnc32)CC1.Cl.Cl
MTD [1]: 252 mg/kg

Cmax [2]: 7370 ng/mL
solubility kinetic [3]: 10.2 µg/mL (≈ 18.6 µM)
Papp [4]: 420 ×10⁻⁶ cm/s
solubility [5]: 7.5 µg/mL (≈ 13.6 µM)
Drug metabolism (Plasma [6]): metabolite_detected
Drug metabolism (Liver [7]): metabolite_detected
Drug metabolism (Liver microsome [8]): metabolite_detected
Drug metabolism [9]: metabolite_detected
Tmax [10]: 1 h
Cmax [11]: 24900 ng/mL
AUC [12]: 113000 ng·h/mL
bioavailability [13]: 67%
Tmax [14]: 0.3 h
AUC [15]: 35100 ng·h/mL
bioavailability [16]: 21%
Structure (SMILES): C[C@H](O)C(=O)N1CCC(CCn2c(Sc3cc4c(cc3Br)OCO4)nc3c(N)ncnc32)CC1
inhibition in vivo at 200 mg/kg (NCI-N87 [17]): 46%

Structure (SMILES): C[C@H](OC(=O)[C@@H](N)CCCCN)C(=O)N1CCC(CCn2c(Sc3cc4c(cc3Br)OCO4)nc3c(N)ncnc32)CC1.Cl.Cl.Cl
Activity (Mus musculus [18]): Toxic

Structure (SMILES): C[C@H](N)C(=O)O[C@@H](C)C(=O)N1CCC(CCn2c(Sc3cc4c(cc3Br)OCO4)nc3c(N)ncnc32)CC1
TGI (NCI-N87 [19]): Active

Structure (SMILES): CS(=O)(=O)O.C[C@H](N)C(=O)O[C@@H](C)C(=O)N1CCC(CCn2c(Sc3cc4c(cc3Br)OCO4)nc3c(N)ncnc32)CC1
solubility kinetic [3]: 536 µg/mL
Papp [4]: 2.7 ×10⁻⁶ cm/s
solubility [20]: > 1000 µg/mL
half-life [21]: < 2 min
half-life [22]: 5 h
half-life [23]: 2.48 h
half-life [24]: 2.42 h
half-life [25]: < 2 min
half-life [26]: < 2 min
half-life [27]: 2 min
half-life [28]: 2 min
half-life [29]: > 4 h
half-life [30]: > 4 h
half-life [31]: 2.88 h
half-life [32]: 0.367 h
Drug metabolism (Plasma [33]): metabolite_detected
Drug metabolism (Liver [34]): metabolite_detected
Drug metabolism (Liver microsome [35]): metabolite_detected
Tmax (Mus musculus [36]): 1 h
Cmax (Mus musculus [37]): 21562 ng/mL
AUC (Mus musculus [38]): 94194 ng·h/mL
F (Mus musculus [39]): 56%
Activity (Mus musculus [40]): Non-toxic

Structure (SMILES): C[C@H](OC(=O)[C@@H](N)CCCCN)C(=O)N1CCC(CCn2c(Sc3cc4c(cc3Br)OCO4)nc3c(N)ncnc32)CC1
solubility [20]: > 1000 µg/mL
F (Mus musculus [41]): > 40%
TGI (NCI-N87 [42]): >40%
